Test system: Ramularia collo-cygni
Experiment: Fungicidal control of Ramularia collo-cygni on winter barley (spray treatments, alone and tank mix)
Format: in vivo
Conditions: sprayed twice 14 days apart, rate (gr A.I./ha) as in table; for % control observed, 38 Days after 2nd application: untreated severity 85.6%; for % control observed, 44 Days after 2nd application: untreated severity 100%
Description: An experiment was conducted to evaluate the fungicidal control of Ramularia collo-cygni on winter barley with a dehydrogenase inhibitor fungicide (fluxapyroxad), and folpet, alone, and in binary mixtures.
The experiments were conducted by applying a commercially available composition of fluxapyroxad (Imtrex®) and folpet (MCW-296 SC) alone or together. The compositions were diluted with water to the stated concentration of the active compound.
The following active ingredients and their mixtures were evaluated: • Fluxapyroxad 90 gr (A.I.)/ha • Folpet 750 gr (A.I.)/ha • Fluxapyroxad+Folpet 90 gr (A.I.)/ha+750 gr (A.I.)/ha
To test for fungicidal control of Ramularia collo-cygni, the winter barley was sprayed with each of the above treatments. Each of the above treatments were applied twice, the 2nd treatment occurring 14 days after the first treatment. The treatments were composed of 4 replicates.
Evaluations were performed at 38 days and 44 days after the second treatment. At these times the severity of the Ramularia collo-cygni was determined. At the time of the 1st evaluation (38 days after the second treatment) the severity of the infection of Ramularia collo-cygni on the winter barley was 85.6%. At the time of the 2nd evaluation (44 days after the second treatment) the severity was 100%.
The visually determined percentages of infected leaf areas may be converted into efficacies in % of the untreated control:
The efficacy (E) is calculated as follows using Abbott's formula: […]
A corresponds to the fungicidal infection of the treated plants in % and B corresponds to the fungicidal infection of the untreated (control) plants in %.
An efficacy of 0 means that the infection level of the treated plants corresponds to that of the untreated control plants; an efficacy of 100 means that the treated plants are not infected.
In the field of agriculture, it is often understood that the term “synergy” is as defined by Colby S. R. in an article entitled “Calculation of the synergistic and antagonistic responses of herbicide combinations” published in the journal Weeds, 1967, 15, p. 20-22. The action expected for a given combination of two active components can be calculated as follows: […]
in which E represents the expected percentage of fungicidal control for the combination of the two fungicides at defined doses (for example equal to x and y respectively), X is the percentage of fungicidal control observed by the compound (I) at a defined dose (equal to x), Y is the percentage of fungicidal control observed by the compound (II) at a defined dose (equal to y). When the percentage of fungicidal control observed for the combination is greater than the expected percentage, there is a synergistic effect.

| SMILES | % control observed, 38 Days after 2nd application [%] | % control observed, 44 Days after 2nd application [%] |
| --- | --- | --- |
| Cn1cc(C(=O)Nc2ccccc2-c2cc(F)c(F)c(F)c2)c(C(F)F)n1 [Fluxapyroxad, fluxapyroxad] | 47.1 | 12.2 |
| O=C1c2ccccc2C(=O)N1SC(Cl)(Cl)Cl [Folpet, folpet] | 30.3 | 9.7 |

— patent publication US20220071210A1, “FUNGICIDAL MIXTURE” (Adama Makhteshim Ltd., priority 2018, published 2022)
